These results are taken from patent US20240173389A1, “Compositions and Methods For Reducing Immune Intolerance” (LAPIX THERAPEUTICS, INC., priority 2021, published 2024).

For this assay, the system named is TLR7. Kind of assay: TNF-α production by splenocytes in response to TLR7 ligand ssPolyU. Type of assay: cell-based, C57BL/6 mice. The following applies: for TNF-α mean: 48 hours, OPLT 1.85 μg/ml, dexamethasone 100 μg/ml, rapamycin 625 μg/ml. On the procedure: OPLT was dissolved in sterile PBS at 100 μM, and pH was adjusted to approximately 7.5. Splenocytes from naïve C57BL/6 mice were stained with CFSE, prepared, cultured, and dosed. Cells were seeded at 2×10^5 cells/well.
To evaluate the effects of OPLT on cytokine production by splenocytes in response to different TLR ligands, splenocytes were incubated with one of the following TLR ligands in triplicate: PGN, LPS, ODN CPG, dsRNA, or ssRNA, as per group assignment. Cells were then treated as follows: • Control: No treatment; • OPLT: Cells were dosed with 1.85 μg/ml; • Dexamethasone: Cells were dosed with 100 μg/ml; • Rapamycin: Cells were dosed with 625 μg/ml. Cells were incubated for 48 hours before collecting the supernatant for TNF-α analysis.
The supernatant was collected for TNF-α analysis by ELISA.

As for `N[C@@H](Cc1ccc(OP(=O)(O)O)cc1)C(=O)O` [OPLT, O-phospho-L-tyrosine], the TNF-α mean is, setting by setting: (Poly U 0 ng/ml) 0 pg/mL; (Poly U 1 ng/ml, CTL 44) 36 pg/mL; (Poly U 10 ng/ml, CTL 51) 40 pg/mL; (Poly U 100 ng/ml, CTL 229) 43 pg/mL. Also, where the note is “high dose of Poly U, statistically significant”, the “effect on splenocytes' TNF-α response to the TLR7 ligand Poly U (in words)” value is “reduced splenocytes' response to a high dose of the TLR7 ligand Poly U”.
